In article PMC9541272, “Carba Analogues of Flupirtine and Retigabine with Improved Oxidation Resistance and Reduced Risk of Quinoid Metabolite Formation” (Chemmedchem, 2022):
Read-outs that look alike come from different tables or passages of the source.

Assays:
[1] = Cyclic voltammetry, anodic peak potential (oxidizability); type: physicochemical; conditions: 0.1 M Tris‐HCl buffer pH 7.4, −0.5 to 1.0 V, sweep rate 0.1 V/s, –[b] = no oxidation observed in the specified potential range
[2] = biological target: KV7.2/3 channel (Homo sapiens, UniProt O43525+O43526); test: KV7.2/3 channel opening activity, thallium-flux FLIPR Potassium Assay in HEK-293 cells overexpressing KV7.2/3; set-up: Emax: dose or concentration left out as unconfirmed; conditions: for Emax: HEK293E, read-out: Efficacy; for KV7.2/3 opening activity (in words): HEK‐293 cells overexpressing KV7.2/3
KV7.2/3 channel, sequence (O43525 whole entry): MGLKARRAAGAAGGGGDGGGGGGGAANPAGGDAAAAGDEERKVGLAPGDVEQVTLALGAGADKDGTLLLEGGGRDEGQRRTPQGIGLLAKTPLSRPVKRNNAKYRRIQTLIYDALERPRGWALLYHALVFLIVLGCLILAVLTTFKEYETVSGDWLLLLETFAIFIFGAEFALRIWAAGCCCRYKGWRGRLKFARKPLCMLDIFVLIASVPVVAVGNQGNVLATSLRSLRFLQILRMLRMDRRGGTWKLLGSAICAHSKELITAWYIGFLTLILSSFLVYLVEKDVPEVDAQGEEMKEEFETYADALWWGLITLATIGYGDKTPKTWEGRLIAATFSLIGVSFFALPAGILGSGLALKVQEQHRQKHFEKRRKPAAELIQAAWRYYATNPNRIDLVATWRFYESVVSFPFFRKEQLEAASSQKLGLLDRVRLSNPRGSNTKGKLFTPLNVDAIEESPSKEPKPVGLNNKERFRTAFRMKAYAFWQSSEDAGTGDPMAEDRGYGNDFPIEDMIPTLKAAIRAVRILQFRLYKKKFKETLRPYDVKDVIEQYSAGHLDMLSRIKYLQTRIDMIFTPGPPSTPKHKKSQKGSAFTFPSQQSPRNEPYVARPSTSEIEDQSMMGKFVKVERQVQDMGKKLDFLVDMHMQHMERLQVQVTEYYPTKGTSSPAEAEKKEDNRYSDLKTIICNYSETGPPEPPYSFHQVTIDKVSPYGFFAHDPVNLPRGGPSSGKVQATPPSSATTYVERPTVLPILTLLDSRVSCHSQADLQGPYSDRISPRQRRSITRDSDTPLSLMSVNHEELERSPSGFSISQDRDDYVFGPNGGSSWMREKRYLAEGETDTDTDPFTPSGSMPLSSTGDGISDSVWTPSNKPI
KV7.2/3 channel, sequence (O43526 whole entry): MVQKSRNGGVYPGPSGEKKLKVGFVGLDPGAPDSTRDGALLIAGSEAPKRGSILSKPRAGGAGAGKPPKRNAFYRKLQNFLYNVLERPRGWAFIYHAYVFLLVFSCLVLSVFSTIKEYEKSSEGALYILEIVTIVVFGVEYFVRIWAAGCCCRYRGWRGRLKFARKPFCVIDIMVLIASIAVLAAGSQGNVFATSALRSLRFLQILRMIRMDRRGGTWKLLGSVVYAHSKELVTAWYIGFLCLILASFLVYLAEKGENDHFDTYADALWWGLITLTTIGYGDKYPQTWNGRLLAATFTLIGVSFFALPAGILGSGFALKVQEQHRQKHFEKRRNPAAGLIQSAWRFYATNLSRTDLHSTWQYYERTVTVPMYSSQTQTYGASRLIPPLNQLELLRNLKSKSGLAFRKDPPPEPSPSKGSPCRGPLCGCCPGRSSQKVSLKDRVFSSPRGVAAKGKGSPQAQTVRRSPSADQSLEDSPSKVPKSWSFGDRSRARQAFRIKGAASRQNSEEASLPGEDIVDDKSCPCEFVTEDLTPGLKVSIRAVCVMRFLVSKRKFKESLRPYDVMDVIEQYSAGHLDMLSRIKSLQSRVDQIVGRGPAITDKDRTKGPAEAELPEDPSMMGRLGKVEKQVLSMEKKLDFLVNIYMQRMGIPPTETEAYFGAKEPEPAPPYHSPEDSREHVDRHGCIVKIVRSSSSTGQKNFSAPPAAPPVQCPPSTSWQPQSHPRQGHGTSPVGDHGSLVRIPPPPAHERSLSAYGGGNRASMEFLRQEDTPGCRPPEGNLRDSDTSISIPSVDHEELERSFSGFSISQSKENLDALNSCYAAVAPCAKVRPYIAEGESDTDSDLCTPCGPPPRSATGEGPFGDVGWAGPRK

[3] = LogD7.4 estimation by HPLC-based method; type: physicochemical; conditions: for logD7.4 (single determination): calculated from retention time with one calibration function (A–F)
Description: The logarithm of the capacity factors of the reference substances was then plotted against the corresponding logP values taken from the mentioned guideline to obtain a calibration function. For non‐ionizable compounds like the reference substances used for calibration, logP values can be considered equivalent to the logD 7.4 values. To obtain a reference mixture, 2 mg of the reference substances were each dissolved in 1 mL of methanol, and 50 μL aliquots of each reference solution were subsequently combined. The reference mixture was measured before and after the substances to be tested, and the mean retention time from both measurements was used to calculate the calibration function. The calibration function was then used to determine the logD 7.4 values from the corresponding retention times for each substance to be tested. The compounds of interest were injected as a solution in methanol (2 mg/mL), and the retention time was determined as the mean value from two measurements.

[4] = system: HEP‐G2 human hepatoma cell line
[5] = system: TAMH mouse liver cell line
[6] = pH 7.4, calculated from retention time with one calibration function (A–F), Table S7, read-out: logD7.4 (single determination)
[7] = pH 7.4, estimated by HPLC-based method, pH 7.4, read-out: LogD 7.4
[8] = HEP‐G2, MTT assay, 24 h exposure

Row | Structure (SMILES) | Ep.a. (anodic peak potential) [1] | EC50 [2] | Emax [2] | logD7.4 (single determination) ([3]; Table S7) | chromatographic logD [3, 6] | chromatographic logD [3, 7] | LD25 (concentration to reduce cell viability by 25 %) ([4]; human, 24 h) | LD50 (concentration to reduce cell viability by 50 %) ([4]; human, 24 h) | LD25 (concentration to reduce cell viability by 25 %) ([5]; mouse, 24 h) | LD50 (concentration to reduce cell viability by 50 %) ([5]; mouse, 24 h) | KV7.2/3 opening activity (in words) [2] | fold increase in potency compared to flupirtine ([2]; KV7.2/3 opening, ratio of EC50 values) | LD25 (concentration to reduce cell viability by 25 %) [4, 8] | LD50 (concentration to reduce cell viability by 50 %) [4, 8] | LD50 (concentration to reduce cell viability by 50 %) ([4]; HEP‐G2, MTT assay, 24 h exposure, listed as retigabine) | LD25 (concentration to reduce cell viability by 25 %) ([5]; TAMH, MTT assay, 24 h exposure) | LD50 (concentration to reduce cell viability by 50 %) ([5]; TAMH, MTT assay, 24 h exposure) | LD50 (concentration to reduce cell viability by 50 %) ([5]; TAMH, MTT assay, 24 h exposure, listed as retigabine)
1 | CCCC(=O)Nc1ncc(CNc2ccc(F)cc2)cc1Br [42 a, N ‐(3‐Bromo‐5‐{[(4‐fluorophenyl)amino]methyl}pyridin‐2‐yl)butyramide] | 668 mV | 5.45 ± 1.7 µM | 163 ± 23% | 2.714 | 2.71 | 2.7 | >63 µM | >63 µM | >63 µM | >63 µM |  |  |  |  |  |  |  | 
2 | CCCC(=O)Nc1ccc(CNc2ccc(C)cn2)cc1C [35 f, N ‐(2‐Methyl‐4‐{[(5‐methylpyridin‐2‐yl)amino]methyl}phenyl)butyramide] | 850 mV | 7.86 ± 2.17 µM | 70 ± 9% | 2.263 | 2.29 | 2.3 | >125 µM | >125 µM | >125 µM | >125 µM | weakly active |  |  |  |  |  |  | 
3 | CCCC(=O)Nc1ccc(CNc2ccc(F)cc2)cc1C [35 b, N ‐(4‐{[(4‐Fluorophenyl)amino]methyl}‐2‐methylphenyl)butyramide] | 618 mV | 0.675 ± 0.276 µM | 176 ± 14% | 2.870 | 2.88 | 2.9 | 88 ± 9 µM | >125 µM | >125 µM | >125 µM |  |  |  |  |  |  |  | 
4 | CCOC(=O)Nc1ccc(CCc2ccc(F)cc2)nc1N [compound 7, Ethyl [2‐amino‐6‐(4‐fluorophenethyl)pyridin‐3‐yl]carbamate] | 628 mV | > 10 µM |  | 2.983 | 2.95 | 3 | 27 ± 16 µM | >63 µM | 25 ± 7 µM | >63 µM | clearly less active than flupirtine |  |  |  |  |  |  | 
5 | CCCC(=O)Nc1ncc(CNc2ccc(F)cc2)cc1C [43 a, N ‐(5‐{[(4‐Fluorophenyl)amino]methyl}‐3‐methylpyridin‐2‐yl)butyramide] | 678 mV | 4.84 ± 2.91 µM | 89 ± 32% | 2.341 | 2.33 | 2.3 | 46 ± 24 µM | >125 µM | 110 ± 54 µM | >125 µM |  |  |  |  |  |  |  | 
6 | Cc1nc(CNc2ccc(F)cc2)ccc1NC(=O)OCC(C)C [compound 27, Isobutyl (6‐{[(4‐fluorophenyl)amino]methyl}‐2‐methylpyridin‐3‐yl)carbamate] | 648 mV | 4.12 ± 3.95 µM | 94 ± 15% | 3.408 | 3.42 | 3.4 | 136 ± 38 µM | >250 µM | 76 ± 15 µM | >250 µM |  |  |  |  |  |  |  | 
7 | CCOC(=O)Nc1ccc(NCc2ccc(F)cc2)cc1N [Ret, retigabine] | 260 mV | 0.249 ± 0.052 µM | 119 ± 7% |  |  |  |  |  |  |  |  | 7 fold | 269 ± 166 µM | >400 µM | above 400 μM | >400 µM | >400 µM | above 400 μM
